Measurements taken from PubChem BioAssay AID248 (DTP/NCI, 2004).
Where “and” joins values, the source holds several entries; their conditions need not be identical. Identical values can stand only once. Inconclusive results and toxic doses are left out. No stated cut-off is given here; in the data, active means T/C of 150% or more; inactive means T/C below 125%.

Test system: L1210 leukemia ip in BDF1 mice, survival T/C
Test: NCI In Vivo Anticancer Drug Screen. Data for tumor model L1210 Leukemia (intraperitoneal) in B6D2F1 (BDF1) mice
Conditions: endpoint: mean survival time, higher = longer survival
In short: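 Survival endpoint. Drug-treated group vs vehicle group, expressed as T divided by C. Tumor passaged by transplantation.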

[1] = dose: 100.0 mg/kg/injection, schedule: Q01DX001 (ip), vehicle: Klucel (hydroxypropylcellulose) (HPC)
[2] = dose: 100.0 mg/kg/injection, schedule: Q04DX003 (ip), vehicle: Klucel (hydroxypropylcellulose) (HPC)
[3] = dose: 200.0 mg/kg/injection, schedule: Q01DX001 (ip), vehicle: Klucel (hydroxypropylcellulose) (HPC)
[4] = dose: 200.0 mg/kg/injection, schedule: Q04DX003 (ip), vehicle: Klucel (hydroxypropylcellulose) (HPC)
[5] = dose: 400.0 mg/kg/injection, schedule: Q01DX001 (ip), vehicle: Klucel (hydroxypropylcellulose) (HPC)
[6] = dose: 400.0 mg/kg/injection, schedule: Q04DX003 (ip), vehicle: Klucel (hydroxypropylcellulose) (HPC)
[7] = dose: 25.0 mg/kg/injection, schedule: Q01DX009 (ip), vehicle: saline with Tween-80
[8] = dose: 100.0 mg/kg/injection, schedule: Q01DX009 (ip), vehicle: saline with Tween-80
[9] = dose: 100.0 mg/kg/injection, schedule: Q01DX009 (ip), vehicle: saline
[10] = dose: 100.0 mg/kg/injection, schedule: Q04DX002 (ip), vehicle: saline with Tween-80
[11] = dose: 200.0 mg/kg/injection, schedule: Q04DX002 (ip), vehicle: saline with Tween-80
[12] = dose: 400.0 mg/kg/injection, schedule: Q04DX002 (ip), vehicle: saline with Tween-80
[13] = dose: 100.0 mg/kg/injection, schedule: Q04DX002 (ip), vehicle: Klucel (hydroxypropylcellulose) (HPC)
[14] = dose: 100.0 mg/kg/injection, schedule: Q04DX003 (ip), vehicle: saline with Tween-80
[15] = dose: 200.0 mg/kg/injection, schedule: Q01DX009 (ip), vehicle: saline with Tween-80
[16] = dose: 200.0 mg/kg/injection, schedule: Q04DX003 (ip), vehicle: saline with Tween-80
[17] = dose: 400.0 mg/kg/injection, schedule: Q01DX009 (ip), vehicle: saline with Tween-80
[18] = dose: 400.0 mg/kg/injection, schedule: Q04DX003 (ip), vehicle: saline with Tween-80
[19] = dose: 100.0 mg/kg/injection, schedule: Q01DX001 (ip), vehicle: carboxymethylcellulose (CMC)
[20] = dose: 200.0 mg/kg/injection, schedule: Q01DX001 (ip), vehicle: carboxymethylcellulose (CMC)
[21] = dose: 400.0 mg/kg/injection, schedule: Q01DX001 (ip), vehicle: carboxymethylcellulose (CMC)
[22] = dose: 25.0 mg/kg/injection, schedule: Q04DX002 (ip), vehicle: Klucel (hydroxypropylcellulose) (HPC)
[23] = dose: 50.0 mg/kg/injection, schedule: Q04DX002 (ip), vehicle: Klucel (hydroxypropylcellulose) (HPC)
[24] = dose: 100.0 mg/kg/injection, schedule: Q01DX001 (ip), vehicle: saline
[25] = dose: 100.0 mg/kg/injection, schedule: Q04DX003 (ip), vehicle: saline
[26] = dose: 200.0 mg/kg/injection, schedule: Q04DX003 (ip), vehicle: saline
[27] = dose: 400.0 mg/kg/injection, schedule: Q04DX003 (ip), vehicle: saline
[28] = dose: 200.0 mg/kg/injection, schedule: Q01DX009 (ip), vehicle: saline
[29] = dose: 400.0 mg/kg/injection, schedule: Q01DX009 (ip), vehicle: saline

Measured: T/C

CC1=CCc2c(NS(=O)(=O)N(C)C)ccc(NS(=O)(=O)N(C)C)c2C1
inactive: [1] 101 % of control | [2] 94 % of control | [3] 97 % of control | [4] 93 % of control | [5] 97 % of control | [6] 91 % of control

C[N+](C)(C)CCOC(=O)c1ccc(CBr)cc1
inactive: [7] 104 % of control | dose: 50.0 mg/kg/injection, schedule: Q01DX009 (ip), vehicle: saline with Tween-80 108 % of control | dose: 50.0 mg/kg/injection, schedule: Q04DX002 (ip), vehicle: saline 90 % of control | [8] 86 % of control | [9] 103 % of control | dose: 100.0 mg/kg/injection, schedule: Q04DX002 (ip), vehicle: saline 98 % of control

CCCCCCC(C)NCC(O)COc1cccc(C)c1 (stereo unspecified)
inactive: dose: 12.5 mg/kg/injection, schedule: Q01DX009 (ip), vehicle: saline with Tween-80 94 % of control | [7] 97 % of control

Cc1ccc(N=Cc2cc(Cl)cc(Cl)c2OC(=O)c2ccccc2)cc1C
inactive: [10] 95 % of control | [11] 92 % of control | [12] 88 % of control

NC(=O)N/N=C1\CC2CC1C1CCCC21 (stereo unspecified)
inactive: dose: 100.0 mg/kg/injection, schedule: Q04DX003 (ip), vehicle: other 104 % of control | dose: 200.0 mg/kg/injection, schedule: Q04DX003 (ip), vehicle: other 98 % of control | dose: 400.0 mg/kg/injection, schedule: Q04DX003 (ip), vehicle: other 94 % of control

CCOC(=O)/C(O)=C\c1cc[n+]([O-])nc1Cl
inactive: [13] 101 % of control | dose: 200.0 mg/kg/injection, schedule: Q04DX002 (ip), vehicle: Klucel (hydroxypropylcellulose) (HPC) 101 % of control | dose: 400.0 mg/kg/injection, schedule: Q04DX002 (ip), vehicle: Klucel (hydroxypropylcellulose) (HPC) 101 % of control

O=C1NC(=S)N/C1=C/c1ccc2c(c1)CCC2
inactive: [8] 112 % of control | [14] 95 % of control | [15] 94 % of control | [16] 101 % of control | [17] 102 % of control | [18] 87 % of control

CCN(CC)CCNc1nc2ccc(C(=O)O)cc2s1
inactive: dose: 75.0 mg/kg/injection, schedule: Q01DX001 (ip), vehicle: saline 100 % of control | dose: 150.0 mg/kg/injection, schedule: Q01DX001 (ip), vehicle: saline 98 % of control | dose: 300.0 mg/kg/injection, schedule: Q01DX001 (ip), vehicle: saline 94 % of control

CC1CC(NC(=S)S)CC(C)(C)C1 (stereo unspecified)
inactive: dose: 25.0 mg/kg/injection, schedule: Q01DX009 (ip), vehicle: Klucel (hydroxypropylcellulose) (HPC) 93 % of control | dose: 50.0 mg/kg/injection, schedule: Q01DX009 (ip), vehicle: Klucel (hydroxypropylcellulose) (HPC) 95 % of control | dose: 100.0 mg/kg/injection, schedule: Q01DX009 (ip), vehicle: Klucel (hydroxypropylcellulose) (HPC) 97 % of control | [2] 93 % of control | [4] 96 % of control

CCOC(=O)C(C(=O)OCC)c1c[n+]([O-])c2ccccc2c1[N+](=O)[O-]
inactive: [19] 93 % of control | [20] 98 % of control | [21] 98 % of control

CCOC(=N)Cc1ccccc1
inactive: dose: 12.5 mg/kg/injection, schedule: Q04DX002 (ip), vehicle: Klucel (hydroxypropylcellulose) (HPC) 100 % of control | [22] 103 % of control | [23] 106 % of control | [13] 110 % of control

O=C1CSC=C(c2ccccc2)O1
inactive: [10] 115 % of control | [11] 101 % of control | [12] 112 % of control

C/C(=N\[N+](C)(C)C)c1cccc(C)n1
inactive: dose: 25.0 mg/kg/injection, schedule: Q01DX009 (ip), vehicle: saline 97 % of control | dose: 25.0 mg/kg/injection, schedule: Q04DX003 (ip), vehicle: saline 107 % of control | dose: 50.0 mg/kg/injection, schedule: Q01DX009 (ip), vehicle: saline 105 % of control | dose: 50.0 mg/kg/injection, schedule: Q04DX003 (ip), vehicle: saline 102 % of control | [24] 103 % of control | [9] 100 % of control | [25] 100 % of control

CCN(CC)C(=O)O/N=C/c1ccccc1
inactive: [24] 94 % of control | dose: 200.0 mg/kg/injection, schedule: Q01DX001 (ip), vehicle: saline 91 % of control | dose: 400.0 mg/kg/injection, schedule: Q01DX001 (ip), vehicle: saline 96 % of control

COC(=O)/C=C/C(=O)OC
inactive: [22] 97 % of control | [23] 100 % of control | [13] 103 % of control | [2] 104 % of control | [25] 101 % of control | [4] 101 % of control | [26] 107 % of control | [6] 112 % of control | [27] 103 % of control

O=S(=O)(O)c1cc(O)c2ccccc2c1
inactive: [9] 90 % of control | [25] 109 % of control | [28] 90 % of control | [26] 109 % of control | [29] 95 % of control | [27] 109 % of control

Cc1ccc(N=N/C(=N\Nc2ccc(C)cc2)[N+](=O)[O-])cc1
inactive: dose: 75.0 mg/kg/injection, schedule: Q01DX001 (ip), vehicle: acetone 90 % of control | dose: 150.0 mg/kg/injection, schedule: Q01DX001 (ip), vehicle: acetone 94 % of control and 86 % of control and 89 % of control | dose: 300.0 mg/kg/injection, schedule: Q01DX001 (ip), vehicle: acetone 93 % of control and 87 % of control and 88 % of control

CC(=O)Nc1ncc(/C=C/c2ccc([N+](=O)[O-])cc2)c(NC(C)=O)n1
inactive: [1] 100 % of control | [3] 87 % of control | [5] 87 % of control

C#CCOCC1CNC(=S)O1 (stereo unspecified)
inactive: [8] 100 % of control | [14] 95 % of control | [15] 98 % of control | [16] 111 % of control | [17] 96 % of control | [18] 97 % of control

Cc1ccc(C2CCCCC2OS(C)(=O)=O)cc1 (stereo unspecified)
inactive: [19] 95 % of control | [20] 92 % of control | [21] 97 % of control

O=C(O)C1C(=O)Oc2c(cccc2[N+](=O)[O-])C1O (stereo unspecified)
inactive: [19] 94 % of control | [20] 92 % of control | [21] 92 % of control

COC(=O)C(C)CN1CCCCCC1 (stereo unspecified)
inactive: [9] 97 % of control | [25] 100 % of control | [28] 104 % of control | [26] 104 % of control | [29] 95 % of control | [27] 102 % of control
